{
  "source": "paper PMC9814548",
  "about": "“Chemoenzymatic synthesis of 3-ethyl-2,5-dimethylpyrazine by L-threonine 3-dehydrogenase and 2-amino-3-ketobutyrate CoA ligase/L-threonine aldolase” (Communications Chemistry, 2021)",
  "target": "T1, CnKBL (Cupriavidus necator, UniProt Q0K313, H138F)",
  "T1 construct": "gene kbl; gene cloned in pET-28a (NcoI/XhoI), E. coli BL21(DE3), Ni-Sepharose and gel filtration; dimer; PLP on K246",
  "T1 sequence (Q0K313 entry or part of it H138F)": "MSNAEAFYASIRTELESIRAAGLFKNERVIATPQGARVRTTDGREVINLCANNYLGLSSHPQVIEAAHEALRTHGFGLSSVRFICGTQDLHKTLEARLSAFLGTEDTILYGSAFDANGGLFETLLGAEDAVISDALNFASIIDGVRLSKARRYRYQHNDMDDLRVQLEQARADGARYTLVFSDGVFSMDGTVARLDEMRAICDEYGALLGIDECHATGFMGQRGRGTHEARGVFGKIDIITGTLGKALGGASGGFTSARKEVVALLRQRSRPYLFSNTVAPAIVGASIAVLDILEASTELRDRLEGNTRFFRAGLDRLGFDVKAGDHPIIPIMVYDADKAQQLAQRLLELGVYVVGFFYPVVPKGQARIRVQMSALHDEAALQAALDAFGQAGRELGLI",
  "assay": "threonine aldolase activity, coupled alcohol dehydrogenase assay",
  "assay_type": "biochemical",
  "conditions": "TA activity not detectable",
  "data": [
    {"smiles": "C[C@@H](O)[C@H](N)C(=O)O", "note": "[L-Thr]", "values": [
      {"measurement": "threonine aldolase activity, coupled alcohol dehydrogenase assay", "result": "TA activity of the H138F variant decreased to an undetectable level compared with CnKBL(WT)"}
    ]}
  ]
}
